For the compound `CCOCc1nc2c(N)nc3ccccc3c2n1CC(C)(C)OCCS(=O)(=O)c1ccccc1` [Example 8, 2-Ethoxymethyl-1-{2-[2-(phenylsulfonyl)ethoxy]-2-methylpropyl}-1H-imidazo[4,5-c]quinolin-4-amine], the melting point was 187 to 189 °C.

In turn, `CCCc1nc2c(N)nc3ccccc3c2n1CCOCCCS(=O)(=O)c1ccccc1` [Example 13, 1-{2-[3-(Phenylsulfonyl)propoxy]ethyl}-2-propyl-1H-imidazo[4,5-c]quinolin-4-amine] yielded a melting point of 160 to 161 °C.

For the compound `CCCc1nc2c(N)nc3ccccc3c2n1CCOCCCS(C)(=O)=O` [Example 19, 1-{2-[3-(Methylsulfonyl)propoxy]ethyl}-2-propyl-1H-imidazo[4,5-c]quinolin-4-amine], the melting point lay within 149 to 151 °C.

For `CCOCc1nc2c(N)nc3ccccc3c2n1CC(C)(C)OCCS(C)(=O)=O` [Example 9, 2-Ethoxymethyl-1-{2-[2-(methylsulfonyl)ethoxy]-2-methylpropyl}-1H-imidazo[4,5-c]quinolin-4-amine], the melting point lay within 183 to 185 °C.

As usually defined, the melting point is the temperature, or range, at which the solid turns liquid.

The values are drawn from patent US7939526B2, “Sulfone substituted imidazo ring ethers” (3M Innovative Properties Company, priority 2003, dated 2011).
